Patent publication US12378224B2 (Dong-A Socio Holdings Co., Ltd., priority 2016, dated 2025)

Each molecule was assayed against human c-MER catalytic domain (Homo sapiens (Human), UniProt Q12866) (assay: TR-FRET Kinase Activity Biochemical Assay (LanthaScreen)). Details: 10 uM ATP, 1 hour, kinase not given.
Source text: For the SAR (structure-activity relationship) and compound screening, LanthaScreen™ TR-FRET (Time-Resolved fluorescence energy transfer) assay was employed using the phospho-tyrosine specific Terbium (Tb)-labelded antibody with a fluorescein labeled poly-GT (glutamate-tyrosine) as a substrate. Upon excitation at 340 nm by UV, the energy from Tb donor of the antibody is transferred to the fluorescein of the phosphorylated poly GT substrate, and fluorescein emits light at 520 nm. The ratio between the intensity of […] was used to quantify the level of kinase activity. The recombinant proteins of human c-MER and AXL catalytic domains, Fluorescein-labeled poly-GT substrate, Tb-labeled anti-phosphorylated tyrosine antibodies, the kinase assay buffer, and 0.5M EDTA solution were purchased (Life technologies, USA). The TR-FRET assays were carried out in the white low volume 384-well plate (Corning, USA). […] 10 mM EDTA was added to terminate the enzyme reaction, and the level of phosphorylation of poly-GT substrate was determined following 30 min incubation with 2 nM Tb-labeled antibody. The fluorescence intensity was measured with Envision™ plate reader (PerkinElmer, USA).

Chain of human c-MER catalytic domain (Q12866 587-858): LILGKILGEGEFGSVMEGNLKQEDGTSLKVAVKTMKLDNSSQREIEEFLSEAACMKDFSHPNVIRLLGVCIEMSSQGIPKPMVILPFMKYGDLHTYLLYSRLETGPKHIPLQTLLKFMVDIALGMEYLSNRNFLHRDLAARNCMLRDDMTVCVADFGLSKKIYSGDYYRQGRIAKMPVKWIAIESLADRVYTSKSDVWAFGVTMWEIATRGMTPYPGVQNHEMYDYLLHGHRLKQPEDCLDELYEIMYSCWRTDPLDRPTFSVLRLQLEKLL

| Compound | IC50 |
| --- | --- |
| Cn1cc(-c2cnc(N)c(C(=O)N[C@@H]3CCN(C(=O)Oc4cccc(-c5ccc(CCC(=O)O)cc5)c4)C3)c2)cn1 [Example 276, (R)-3-(3′-((3-(2-amino-5-(1-methyl-1H-pyrazol-4-yl)nicotinamido)pyrrolidine-1-carbonyl)oxy)-[1,1′-biphenyl]-4-yl) propanoic acid] | 0.1 to 1 µM |
| Cn1cc(-c2cnc(N)c(C(=O)N[C@@H]3CCN(C(=O)Oc4cccc(-c5cccc(C(=O)NCCC#N)c5)c4)C3)c2)cn1 [Example 277, 3′-((2-cyanoethyl)carbamoyl)-[1,1′-biphenyl]-3-yl (R)-3-(2-amino-5-(1-methyl-1H-pyrazol-4-yl)nicotinamido)pyrrolidine-1-carboxylate] | 0.1 to 1 µM |
| Cn1cc(-c2cnc(N)c(C(=O)N[C@@H]3CCN(C(=O)Oc4cccc(-c5cnn(Cc6ccccc6)c5)c4)C3)c2)cn1 [Example 283, 3-(1-benzyl-1H-pyrazol-4-yl)phenyl (R)-3-(2-amino-5-(1-methyl-1H-pyrazol-4-yl)nicotinamido)pyrrolidine-1-carboxylate] | 0.1 to 1 µM |
| Cn1cc(-c2cnc(N)c(C(=O)N[C@@H]3CCN(C(=O)Oc4cccc(-c5cnn(C6CCNCC6)c5)c4)C3)c2)cn1 [Example 285, 3-(1-(piperidin-4-yl)-1H-pyrazol-4-yl)phenyl (R)-3-(2-amino-5-(1-methyl-1H-pyrazol-4-yl)nicotinamido)pyrrolidine-1-carboxylate] | 0.1 to 1 µM |
| Cn1cc(-c2cnc(N)c(C(=O)N[C@@H]3CCN(C(=O)Oc4cccc(-c5cnn(CCN6CCCC6)c5)c4)C3)c2)cn1 [Example 286, 3-(1-(2-(pyrrolidin-1-yl)ethyl)-1H-pyrazol-4-yl)phenyl (R)-3-(2-amino-5-(1-methyl-1H-pyrazol-4-yl)nicotinamido)pyrrolidine-1-carboxylate] | 0.1 to 1 µM |
| Cn1cc(-c2cnc(N)c(C(=O)N[C@@H]3CCN(C(=O)Oc4cc(Cl)cc(-c5ccc(CO)cc5)c4)C3)c2)cn1 [Example 291, 5-chloro-4′-(hydroxymethyl)-[1,1′-biphenyl]-3-yl (R)-3-(2-amino-5-(1-methyl-1H-pyrazol-4-yl)nicotinamido)pyrrolidine-1-carboxylate] | 0.01 to 0.1 µM |
| CN1CCN(Cc2ccc(-c3cc(Cl)cc(OC(=O)N4CC[C@@H](NC(=O)c5cc(-c6cnn(C)c6)cnc5N)C4)c3)cc2)CC1 [Example 292, 5-chloro-4′-((4-methylpiperazin-1-yl)methyl)-[1,1′-biphenyl]-3-yl (R)-3-(2-amino-5-(1-methyl-1H-pyrazol-4-yl)nicotinamido)pyrrolidine-1-carboxylate] | < 0.01 µM |
| Cn1cc(-c2cnc(N)c(C(=O)N[C@@H]3CCN(C(=O)Oc4ccc5ccc(OC6CCNCC6)cc5c4)C3)c2)cn1 [Example 294, 7-(piperidin-4-yloxy)naphthalen-2-yl (R)-3-(2-amino-5-(1-methyl-1H-pyrazol-4-yl)nicotinamido)pyrrolidine-1-carboxylate] | 0.01 to 0.1 µM |
| CN(C)CCCOc1ccc2ccc(OC(=O)N3CC[C@@H](NC(=O)c4cc(-c5cnn(C)c5)cnc4N)C3)cc2c1 [Example 295, 7-(3-(dimethylamino)propoxy)naphthalen-2-yl (R)-3-(2-amino-5-(1-methyl-1H-pyrazol-4-yl)nicotinamido)pyrrolidine-1-carboxylate] | 0.01 to 0.1 µM |
| CN(C)CCOc1ccc2ccc(OC(=O)N3CC[C@@H](NC(=O)c4cc(-c5cnn(C)c5)cnc4N)C3)cc2c1 [Example 296, 7-(2-(dimethylamino)ethoxy)naphthalen-2-yl (R)-3-(2-amino-5-(1-methyl-1H-pyrazol-4-yl)nicotinamido)pyrrolidine-1-carboxylate] | 0.01 to 0.1 µM |
| CN1CCC(Oc2ccc3ccc(OC(=O)N4CC[C@@H](NC(=O)c5cc(-c6cnn(C)c6)cnc5N)C4)cc3c2)CC1 [Example 297, 7-((1-methylpiperidin-4-yl)oxy)naphthalen-2-yl (R)-3-(2-amino-5-(1-methyl-1H-pyrazol-4-yl)nicotinamido)pyrrolidine-1-carboxylate] | 0.1 to 1 µM |
| CN(C)CCOc1ccc2cc(OC(=O)N3CC[C@@H](NC(=O)c4cc(-c5cnn(C)c5)cnc4N)C3)ccc2c1 [Example 300, 6-(2-(dimethylamino)ethoxy)naphthalen-2-yl (R)-3-(2-amino-5-(1-methyl-1H-pyrazol-4-yl)nicotinamido)pyrrolidine-1-carboxylate] | 0.1 to 1 µM |
| CN(C)CCCOc1ccc2cc(OC(=O)N3CC[C@@H](NC(=O)c4cc(-c5cnn(C)c5)cnc4N)C3)ccc2c1 [Example 301, 6-(3-(dimethylamino)propoxy)naphthalen-2-yl (R)-3-(2-amino-5-(1-methyl-1H-pyrazol-4-yl)nicotinamido)pyrrolidine-1-carboxylate] | 0.1 to 1 µM |
| Cn1cc(-c2cnc(N)c(C(=O)N[C@@H]3CCN(C(=O)Oc4ccc5cc(OC6CCNCC6)ccc5c4)C3)c2)cn1 [Example 302, 6-(piperidin-4-yloxy)naphthalen-2-yl (R)-3-(2-amino-5-(1-methyl-1H-pyrazol-4-yl)nicotinamido)pyrrolidine-1-carboxylate] | 0.01 to 0.1 µM |
| Cn1cc(-c2cnc(N)c(C(=O)N[C@@H]3CCN(C(=O)Oc4cccc(OCC5CCNCC5)c4)C3)c2)cn1 [Example 304] | 0.1 to 1 µM |
| Cn1cc(-c2cnc(N)c(C(=O)N[C@@H]3CCN(C(=O)Oc4cccc(-c5ccc(CNCC6CNC6)cc5)c4)C3)c2)cn1 [Example 309, 4′-(((azetidin-3-ylmethyl)amino)methyl)-[1,1′-biphenyl]-3-yl (R)-3-(2-amino-5-(1-methyl-1H-pyrazol-4-yl)nicotinamido)pyrrolidine-1-carboxylate] | 0.01 to 0.1 µM |
| Cn1cc(-c2cnc(N)c(C(=O)N[C@@H]3CCN(C(=O)Oc4cccc(-c5ccc(CN6CCC(N)CC6)cc5)c4)C3)c2)cn1 [Example 317, 4′-((4-aminopiperidin-1-yl)methyl)-[1,1′-biphenyl]-3-yl (R)-3-(2-amino-5-(1-methyl-1H-pyrazol-4-yl)nicotinamido)pyrrolidine-1-carboxylate] | 0.01 to 0.1 µM |
| Cn1cc(-c2cnc(N)c(C(=O)N[C@@H]3CCN(C(=O)Oc4cccc(-c5ccc(CNCC(=O)O)cc5)c4)C3)c2)cn1 [Example 326, (R)-((3′-((3-(2-amino-5-(1-methyl-1H-pyrazol-4-yl)nicotinamido)pyrrolidine-1-carbonyl)oxy)-[1,1′-biphenyl]-4-yl)methyl)glycine] | 0.1 to 1 µM |
| Cn1cc(-c2cnc(N)c(C(=O)N[C@@H]3CCN(C(=O)Oc4cccc(-c5ccc(CN6CC[C@@H](N)C6)cc5)c4)C3)c2)cn1 [Example 330, 4′-(((R)-3-aminopyrrolidin-1-yl)methyl)-[1,1′-biphenyl]-3-yl (R)-3-(2-amino-5-(1-methyl-1H-pyrazol-4-yl)nicotinamido)pyrrolidine-1-carboxylate] | 0.01 to 0.1 µM |
| Cn1cc(-c2cnc(N)c(C(=O)N[C@@H]3CCN(C(=O)Oc4cccc(-c5ccc(CN6CC[C@H](N)C6)cc5)c4)C3)c2)cn1 [Example 331, 4′-(((S)-3-aminopyrrolidin-1-yl)methyl)-[1,1′-biphenyl]-3-yl (R)-3-(2-amino-5-(1-methyl-1H-pyrazol-4-yl)nicotinamido)pyrrolidine-1-carboxylate] | 0.01 to 0.1 µM |
| Cn1cc(-c2cnc(N)c(C(=O)N[C@@H]3CCN(C(=O)Oc4cccc(-c5ccc(CN6CCC[C@H](N)C6)cc5)c4)C3)c2)cn1 [Example 332, 4′-(((S)-3-aminopiperidin-1-yl)methyl)-[1,1′-biphenyl]-3-yl (R)-3-(2-amino-5-(1-methyl-1H-pyrazol-4-yl)nicotinamido)pyrrolidine-1-carboxylate] | 0.01 to 0.1 µM |
